For the series the following is noted: fasted subjects, 100 mg CBD equivalent by mouth, 1 hour post ingestion.

From patent US20260248949A1, “COMPOSITION AND METHOD” (Optimus Salvus Limited, priority 2022, published 2026) come the findings set out here.

Experimental: Fasted subjects were administered either a single cannabidiol capsule (100 mg cannabidiol) or two cannabidiol/cyclodextrin capsules (total 100 mg cannabidiol equivalent) by mouth. The capsules were taken with a standard glass of water. Capillary blood was drawn one hour after ingestion and the quantity of cannabidiol and cannabidiol metabolites in blood analysed by a certified laboratory.

With `C=C(C)[C@@H]1CCC(C)=C[C@H]1c1c(O)cc(CCCCC)cc1O` [Plain CBD, cannabidiol], the “Concentration of CBD in capillary blood” value is 11.52 ng/mL; the “Concentration of CBD-COOH in capillary blood” value turned out to be 13.14 ng/mL; the “Concentration of CBD-OH in capillary blood” value was found to be 1.85 ng/mL; the “Concentration, Total (CBD and metabolites) in capillary blood” value was found to be 26.77 ng/mL.
